Drawing on patent US9611277B2 (Janssen Pharmaceutica NV, priority 2013, dated 2017), this text covers Ki for 17 molecules.

The target in one assay is human orexin 1 receptor (Homo sapiens, UniProt O43613). The assay is described as follows: Human orexin 1 receptor radioligand binding. The note with it: human orexin 1 receptor; averages of 2-20 runs; read-out: hOX1 Ki. In outline:
(§1)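 Ki values derive from one-site competition IC50s corrected with the radioligand's predetermined Kd, triplicates per run, averaged over 2-20 runs. Cell homogenates (rat or human OX1R) compete against [^3H]-thiazolyl-oxadiazolyl-pyrrolidine methanone in PBS; 10 μM almorexant sets nonspecific binding; scintillation counting after washing.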

The next assay addresses human orexin 2 receptor (Homo sapiens (Human), UniProt O43614). The assay is described as follows: Human orexin 2 receptor radioligand binding. The settings on record: human orexin 2 receptor; averages of 2-20 runs; read-out: hOX2 Ki. The gist of the method:
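Ki derived from one-site competition IC50 using predetermined Kd of [3H]-EMPA, triplicate points, 2-20 runs averaged. Binding done on homogenized HEK293 cells stably expressing human orexin 2 receptor, DMSO ≤0.1%, with 10 μM almorexant defining nonspecific binding; filtered, washed, scintillation counted.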

For another assay, the target named is rat orexin 1 receptor (Rattus norvegicus, UniProt P56718). The assay is described as follows: Rat orexin 1 receptor radioligand binding. The note with it: rat orexin 1 receptor; averages of 2-20 runs; read-out: rOX1 Ki. In outline: as §1

Sequence of human orexin 2 receptor (O43614 whole entry): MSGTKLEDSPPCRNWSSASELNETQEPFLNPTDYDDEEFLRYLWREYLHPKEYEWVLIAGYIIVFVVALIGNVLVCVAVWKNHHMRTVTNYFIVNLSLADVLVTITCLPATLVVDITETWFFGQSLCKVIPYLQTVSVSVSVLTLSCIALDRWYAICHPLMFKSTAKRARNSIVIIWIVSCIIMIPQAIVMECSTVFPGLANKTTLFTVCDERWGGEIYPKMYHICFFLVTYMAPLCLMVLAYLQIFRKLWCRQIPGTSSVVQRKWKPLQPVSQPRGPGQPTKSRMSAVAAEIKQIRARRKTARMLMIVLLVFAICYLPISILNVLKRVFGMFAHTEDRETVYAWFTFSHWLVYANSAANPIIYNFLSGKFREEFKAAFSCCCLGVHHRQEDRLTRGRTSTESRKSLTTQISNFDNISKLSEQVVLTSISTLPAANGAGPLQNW

A word on the Ki: it is a measure of affinity in units of concentration, obtained from inhibition or displacement. For the molecule `Cc1ccc(-n2nccn2)c(C(=O)N2C[C@H]3C[C@@H](Nc4cnc(C(F)(F)F)cn4)[C@@H]2C3)n1` [Example 61, (6-methyl-3-(2H-1,2,3-triazol-2-yl)pyridin-2-yl)((1S,4S,6R)-6-((5-(trifluoromethyl)pyrazin-2-yl)amino)-2-azabicyclo[2.2.1]heptan-2-yl)methanone], the inhibitory constant (Ki) was 19 nM on human orexin 1 receptor, 248 nM at human orexin 2 receptor and 15 nM at rat orexin 1 receptor.
Regarding `Cc1cnc(O[C@@H]2C[C@H]3C[C@@H]2N(C(=O)c2cccc(F)c2-c2ncccn2)C3)nc1` [Example 133, (3-fluoro-2-(pyrimidin-2-yl)phenyl)((1S,4R,6R)-6-((5-methylpyrimidin-2-yl)oxy)-2-azabicyclo[2.2.1]heptan-2-yl)methanone], the Ki was 102 nM at human orexin 1 receptor, 4200 nM at human orexin 2 receptor and 60 nM on rat orexin 1 receptor.
`O=C(c1cc(F)ccc1-n1nccn1)N1C[C@H]2C[C@@H](Nc3ncc(Cl)cn3)[C@@H]1C2` [Example 235, ((1S,4S,6R)-6-((5-chloropyrimidin-2-yl)amino)-2-azabicyclo[2.2.1]heptan-2-yl)(5-fluoro-2-(2H-1,2,3-triazol-2-yl)phenyl)methanone]: the Ki at human orexin 1 receptor is 41 nM; at human orexin 2 receptor, 1300 nM; at rat orexin 1 receptor, 36 nM.
As to `Cc1ccc(-n2nccn2)c(C(=O)N2C[C@H]3C[C@@H](N(C)c4ccc(C(F)(F)F)cn4)[C@@H]2C3)n1` [Example 156, ((1S,4S,6R)-6-(methyl(5-(trifluoromethyl)pyridin-2-yl)amino)-2-azabicyclo[2.2.1]heptan-2-yl)(6-methyl-3-(2H-1,2,3-triazol-2-yl)pyridin-2-yl)methanone], the Ki at human orexin 1 receptor turned out to be 5 nM; at human orexin 2 receptor it was 274 nM; at rat orexin 1 receptor it was 7 nM.
`Cc1ccc(-c2ncccn2)c(C(=O)N2C[C@H]3C[C@@H](Oc4ncc(Cl)cn4)[C@@H]2C3)n1` [Example 285, ((1S,4R,6R)-6-((5-chloropyrimidin-2-yl)oxy)-2-azabicyclo[2.2.1]heptan-2-yl)(6-methyl-3-(pyrimidin-2-yl)pyridin-2-yl)methanone]: the Ki on human orexin 1 receptor stood at 215 nM; on human orexin 2 receptor it was 6000 nM; on rat orexin 1 receptor it was 117 nM.
In the case of `O=C(c1cccc(F)c1-c1ncc(F)cn1)N1C[C@@H]2CC[C@H]1[C@H](Oc1cnc(C(F)(F)F)cn1)C2` [Example 273, (3-fluoro-2-(5-fluoropyrimidin-2-yl)phenyl)((1S,4R,6R)-6-((5-(trifluoromethyl)pyrazin-2-yl)oxy)-2-azabicyclo[2.2.2]octan-2-yl)methanone], the Ki was 16 nM at human orexin 1 receptor, 3800 nM at human orexin 2 receptor and 44 nM at rat orexin 1 receptor.
The matching figures for `O=C(c1ccccc1-n1nccn1)N1C[C@@H]2CC[C@H]1[C@H](Oc1ccc(Cl)cn1)C2` [Example 270, (2-(2H-1,2,3-triazol-2-yl)phenyl)((1S,4R,6R)-6-((5-chloropyridin-2-yl)oxy)-2-azabicyclo[2.2.2]octan-2-yl)methanone]: 3 nM, 200 nM and 4 nM.
Consider `O=C(c1cccc2cc[nH]c12)N1C[C@H]2C[C@@H](Nc3ccc(C(F)(F)F)cn3)[C@@H]1C2` [Example 185, (1H-indol-7-yl)((1S,4S,6R)-6-((5-(trifluoromethyl)pyridin-2-yl)amino)-2-azabicyclo[2.2.1]heptan-2-yl)methanone], for which the figures for the inhibition constant Ki on human orexin 1 receptor, on human orexin 2 receptor and at rat orexin 1 receptor were 33 nM, 146 nM and 27 nM, respectively.
The corresponding values for `O=C(c1cccc(F)c1-c1ncccn1)N1C[C@H]2C[C@@H](Nc3ccc(Cl)cn3)[C@@H]1C2` [Example 170, ((1S,4S,6R)-6-((5-chloropyridin-2-yl)amino)-2-azabicyclo[2.2.1]heptan-2-yl)(3-fluoro-2-(pyrimidin-2-yl)phenyl)methanone] are 12 nM, 321 nM and 4 nM.
Take `O=C(c1c(F)cccc1-c1ncccn1)N1C[C@H]2C[C@@H](Nc3cnc(C(F)(F)F)cn3)[C@@H]1C2` [Example 200, (2-fluoro-6-(pyrimidin-2-yl)phenyl)((1S,4S,6R)-6-((5-(trifluoromethyl)pyrazin-2-yl)amino)-2-azabicyclo[2.2.1]heptan-2-yl)methanone]: the values for the Ki at human orexin 1 receptor, at human orexin 2 receptor and at rat orexin 1 receptor were 6 nM, 240 nM and 7 nM, respectively.
The corresponding values for `Cc1cnc(O[C@@H]2C[C@H]3C[C@@H]2N(C(=O)c2ccccc2-n2nccn2)C3)nc1` [Example 131, (2-(2H-1,2,3-triazol-2-yl)phenyl)((1S,4R,6R)-6-((5-methylpyrimidin-2-yl)oxy)-2-azabicyclo[2.2.1]heptan-2-yl)methanone] are 132 nM, 2200 nM and 140 nM.
For the molecule `Cc1cnc(N[C@@H]2C[C@H]3C[C@@H]2N(C(=O)c2ccccc2-c2ncccn2)C3)cn1` [Example 220, ((1S,4S,6R)-6-((5-methylpyrazin-2-yl)amino)-2-azabicyclo[2.2.1]heptan-2-yl)(2-(pyrimidin-2-yl)phenyl)methanone], the Ki at human orexin 1 receptor was 17 nM; on human orexin 2 receptor, 284 nM; at rat orexin 1 receptor, 11 nM.
Regarding `O=C(c1ccc(F)cc1-c1ncccn1)N1C[C@H]2C[C@@H](Oc3ccc(Br)cn3)[C@@H]1C2` [Example 110, ((1S,4R,6R)-6-((5-bromopyridin-2-yl)oxy)-2-azabicyclo[2.2.1]heptan-2-yl)(4-fluoro-2-(pyrimidin-2-yl)phenyl)methanone], the Ki was 11 nM at human orexin 1 receptor, 1200 nM on human orexin 2 receptor and 6 nM at rat orexin 1 receptor.
Turning to `O=C(c1ncccc1-c1ncccn1)N1C[C@H]2C[C@@H](Nc3cnc(C(F)(F)F)cn3)[C@@H]1C2` [Example 189, (3-(pyrimidin-2-yl)pyridin-2-yl)((1S,4S,6R)-6-((5-(trifluoromethyl)pyrazin-2-yl)amino)-2-azabicyclo[2.2.1]heptan-2-yl)methanone], the Ki on human orexin 1 receptor worked out at 11 nM; at human orexin 2 receptor, 678 nM; at rat orexin 1 receptor it was 14 nM.
With `O=C(c1cccc(F)c1-c1ncccn1)N1C[C@H]2C[C@@H](Nc3ccc(C(F)(F)F)nc3)[C@@H]1C2` [Example 247, (3-fluoro-2-(pyrimidin-2-yl)phenyl)((1S,4S,6R)-6-((6-(trifluoromethyl)pyridin-3-yl)amino)-2-azabicyclo[2.2.1]heptan-2-yl)methanone], the results for the Ki on human orexin 1 receptor, on human orexin 2 receptor and on rat orexin 1 receptor were 31 nM, 939 nM and 26 nM, respectively.
For the molecule `O=C(c1cccc(F)c1-c1ncccn1)N1C[C@@H]2CC[C@H]1[C@H](Oc1ncc(C(F)(F)F)cc1F)C2` [Example 266, (3-fluoro-2-(pyrimidin-2-yl)phenyl)((1S,4R,6R)-6-((3-fluoro-5-(trifluoromethyl)pyridin-2-yl)oxy)-2-azabicyclo[2.2.2]octan-2-yl)methanone], the Ki on human orexin 1 receptor was found to be 11 nM; at human orexin 2 receptor, 654 nM; at rat orexin 1 receptor, 11 nM.
`O=C(c1ccc(F)cc1-n1nccn1)N1C[C@H]2C[C@@H](Nc3ncc(C(F)(F)F)cn3)[C@@H]1C2` [Example 224, (4-fluoro-2-(2H-1,2,3-triazol-2-yl)phenyl)((1S,4S,6R)-6-((5-(trifluoromethyl)pyrimidin-2-yl)amino)-2-azabicyclo[2.2.1]heptan-2-yl)methanone]: the Ki was determined as 33 nM at human orexin 1 receptor, 1900 nM at human orexin 2 receptor and 37 nM on rat orexin 1 receptor.
